Test results from patent publication US20190330224A1, “ACC INHIBITORS AND USES THEREOF” (Gilead Apollo, LLC, priority 2015, published 2019).
In brackets after ≈: the same amount, converted by molar mass. Where two headings read alike, the source gives them in different places.

Assays:
Human ACC2 = Human ACC2 (Homo sapiens, UniProt O00763); test: In vitro ACC2 inhibition assay (ADP-Glo), human ACC2; assay type: biochemical; details: 5 nM ACC2, 20 μM ATP, 20 μM acetyl-CoA
Fungal ACC2 = Fungal ACC2 (UniProt Q00955); details: read-out: Fungal ACC2 (IC50, in vitro ACC2 inhibition)
C. albicans ATCC 90028 = test: Anti-Fungal Activity Assay (broth microtiter MIC), C. albicans; assay type: cell-based, Candida albicans; details: for MIC: Candida albicans, ATCC90028, 48 h, read-out: MIC C. albicans ATCC 90028
Procedure: (§1) Compounds of the present invention were evaluated in an Anti-Fungal Activity Assay. An exemplary procedure for the assay, which measures the susceptibility of various Candida species to anti-fungal compounds, follows. Compounds to be tested (including fluconazole and amphotericin B) were dissolved in DMSO to obtain a solution having a concentration of 1 mg/mL. […] All species were grown from frozen stock by directly plating on to freshly prepared Sabouraud Dextrose agar (BD, Difco) and incubated overnight in ambient air at 35° C. for 24 h. A direct suspension was prepared in RPMI 1640+MOPS (Lonza, Biowhittaker) by taking individual colonies from the overnight cultures using sterile swabs soaked in sterile saline. The concentration of the suspension was determined using pre-determined standard curves. […] Broth microtiter MIC challenge plates were prepared following CLSI guidelines (M27-A3, Vol. 28 No. 14). The original CLSI guidelines focused on reading Candida MICs after 48 h of incubation. As reading after only 24 h offers a clear advantage of patient care, QC limits are being established for all drugs at 24 h. That being said there are no known interpretive breakpoints for amphotericin B at 24 h and the current fluconazole interpretive breakpoints are based on a 48 h reading. The MIC breakpoints for the test compounds were recorded at 48 h, and for the soraphen the 24 h time-point was added. All MIC determinations were achieved by visually comparing the growth found in the antibiotic challenged wells to that of the growth control.

C. krusei ATCC 6258 = test: Anti-Fungal Activity Assay (broth microtiter MIC), C. krusei; assay type: cell-based, Candida krusei; details: for MIC: Pichia kudriavzevii, ATCC6258, 48 h, read-out: MIC C. krusei ATCC 6258
Procedure: as §1

[1] = test system: C. parapsilosis ATCC 22019; test: Anti-Fungal Activity Assay (broth microtiter MIC), C. parapsilosis; assay type: cell-based, Candida parapsilosis; details: for MIC: Lodderomyces parapsilosis, ATCC22019, 48 h, read-out: MIC C. parapsilosis ATCC 22019
Procedure: as §1

[2] = 3 replicates, MIC recorded at 48 h

Sequence of Human ACC2 (O00763 whole entry): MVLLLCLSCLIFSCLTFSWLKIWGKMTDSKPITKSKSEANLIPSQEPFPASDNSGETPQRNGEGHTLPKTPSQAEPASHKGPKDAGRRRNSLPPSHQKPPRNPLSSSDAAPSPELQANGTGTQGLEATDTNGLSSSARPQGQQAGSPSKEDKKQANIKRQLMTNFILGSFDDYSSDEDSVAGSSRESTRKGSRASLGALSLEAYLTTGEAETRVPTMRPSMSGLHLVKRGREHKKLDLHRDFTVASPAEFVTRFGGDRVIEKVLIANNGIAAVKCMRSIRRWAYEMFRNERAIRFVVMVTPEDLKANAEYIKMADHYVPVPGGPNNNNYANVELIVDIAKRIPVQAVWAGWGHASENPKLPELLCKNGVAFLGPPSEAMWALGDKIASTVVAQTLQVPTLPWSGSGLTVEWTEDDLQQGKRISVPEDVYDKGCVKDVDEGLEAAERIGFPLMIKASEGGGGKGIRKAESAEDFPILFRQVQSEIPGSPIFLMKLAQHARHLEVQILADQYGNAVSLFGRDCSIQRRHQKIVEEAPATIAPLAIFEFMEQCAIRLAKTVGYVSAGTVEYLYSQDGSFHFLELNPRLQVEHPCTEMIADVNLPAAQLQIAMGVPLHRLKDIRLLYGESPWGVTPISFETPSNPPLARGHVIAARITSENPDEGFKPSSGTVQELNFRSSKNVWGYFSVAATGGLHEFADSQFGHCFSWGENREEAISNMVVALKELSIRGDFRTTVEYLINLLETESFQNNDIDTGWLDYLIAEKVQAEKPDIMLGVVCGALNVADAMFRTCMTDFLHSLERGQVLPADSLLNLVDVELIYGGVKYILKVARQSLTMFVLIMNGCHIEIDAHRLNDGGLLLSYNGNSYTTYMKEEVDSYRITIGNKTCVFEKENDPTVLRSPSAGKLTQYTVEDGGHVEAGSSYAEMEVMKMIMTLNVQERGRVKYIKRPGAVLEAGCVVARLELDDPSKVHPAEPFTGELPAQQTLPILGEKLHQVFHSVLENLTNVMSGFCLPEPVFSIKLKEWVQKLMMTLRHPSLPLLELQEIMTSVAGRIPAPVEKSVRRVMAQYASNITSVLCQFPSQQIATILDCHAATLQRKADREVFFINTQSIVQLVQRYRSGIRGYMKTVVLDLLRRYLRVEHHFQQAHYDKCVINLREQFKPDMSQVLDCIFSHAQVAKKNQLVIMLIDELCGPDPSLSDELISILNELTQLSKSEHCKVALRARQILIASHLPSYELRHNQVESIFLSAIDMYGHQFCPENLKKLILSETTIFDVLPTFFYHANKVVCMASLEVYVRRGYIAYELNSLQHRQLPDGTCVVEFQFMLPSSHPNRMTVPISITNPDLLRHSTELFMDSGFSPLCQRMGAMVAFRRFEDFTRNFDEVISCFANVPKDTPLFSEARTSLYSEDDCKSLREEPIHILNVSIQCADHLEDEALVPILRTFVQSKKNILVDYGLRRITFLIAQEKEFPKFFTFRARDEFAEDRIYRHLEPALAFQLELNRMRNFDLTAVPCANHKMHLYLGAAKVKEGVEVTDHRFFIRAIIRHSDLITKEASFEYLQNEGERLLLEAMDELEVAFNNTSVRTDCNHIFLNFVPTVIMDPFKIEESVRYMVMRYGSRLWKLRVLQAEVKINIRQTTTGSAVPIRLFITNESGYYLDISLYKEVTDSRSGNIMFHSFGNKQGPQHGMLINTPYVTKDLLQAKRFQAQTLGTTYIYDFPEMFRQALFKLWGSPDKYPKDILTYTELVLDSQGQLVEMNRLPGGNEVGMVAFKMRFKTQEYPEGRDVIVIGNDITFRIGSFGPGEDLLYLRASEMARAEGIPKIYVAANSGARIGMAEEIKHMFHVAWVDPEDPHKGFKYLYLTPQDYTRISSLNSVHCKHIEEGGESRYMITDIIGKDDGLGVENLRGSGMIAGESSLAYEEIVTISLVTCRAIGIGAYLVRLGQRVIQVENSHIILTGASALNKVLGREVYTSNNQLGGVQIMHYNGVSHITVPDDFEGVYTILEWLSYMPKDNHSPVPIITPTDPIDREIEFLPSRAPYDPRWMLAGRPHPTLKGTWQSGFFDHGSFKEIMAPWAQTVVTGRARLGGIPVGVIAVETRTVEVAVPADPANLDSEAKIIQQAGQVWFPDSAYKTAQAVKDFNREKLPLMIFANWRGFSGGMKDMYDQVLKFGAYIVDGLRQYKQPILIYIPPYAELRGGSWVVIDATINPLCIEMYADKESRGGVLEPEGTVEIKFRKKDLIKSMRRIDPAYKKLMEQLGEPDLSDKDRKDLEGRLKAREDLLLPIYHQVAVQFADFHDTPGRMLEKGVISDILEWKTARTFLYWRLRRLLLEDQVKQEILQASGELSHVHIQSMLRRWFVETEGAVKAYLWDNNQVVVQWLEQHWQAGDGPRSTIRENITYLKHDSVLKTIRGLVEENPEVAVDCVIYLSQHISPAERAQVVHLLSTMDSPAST
Sequence of Fungal ACC2 (Q00955 whole entry): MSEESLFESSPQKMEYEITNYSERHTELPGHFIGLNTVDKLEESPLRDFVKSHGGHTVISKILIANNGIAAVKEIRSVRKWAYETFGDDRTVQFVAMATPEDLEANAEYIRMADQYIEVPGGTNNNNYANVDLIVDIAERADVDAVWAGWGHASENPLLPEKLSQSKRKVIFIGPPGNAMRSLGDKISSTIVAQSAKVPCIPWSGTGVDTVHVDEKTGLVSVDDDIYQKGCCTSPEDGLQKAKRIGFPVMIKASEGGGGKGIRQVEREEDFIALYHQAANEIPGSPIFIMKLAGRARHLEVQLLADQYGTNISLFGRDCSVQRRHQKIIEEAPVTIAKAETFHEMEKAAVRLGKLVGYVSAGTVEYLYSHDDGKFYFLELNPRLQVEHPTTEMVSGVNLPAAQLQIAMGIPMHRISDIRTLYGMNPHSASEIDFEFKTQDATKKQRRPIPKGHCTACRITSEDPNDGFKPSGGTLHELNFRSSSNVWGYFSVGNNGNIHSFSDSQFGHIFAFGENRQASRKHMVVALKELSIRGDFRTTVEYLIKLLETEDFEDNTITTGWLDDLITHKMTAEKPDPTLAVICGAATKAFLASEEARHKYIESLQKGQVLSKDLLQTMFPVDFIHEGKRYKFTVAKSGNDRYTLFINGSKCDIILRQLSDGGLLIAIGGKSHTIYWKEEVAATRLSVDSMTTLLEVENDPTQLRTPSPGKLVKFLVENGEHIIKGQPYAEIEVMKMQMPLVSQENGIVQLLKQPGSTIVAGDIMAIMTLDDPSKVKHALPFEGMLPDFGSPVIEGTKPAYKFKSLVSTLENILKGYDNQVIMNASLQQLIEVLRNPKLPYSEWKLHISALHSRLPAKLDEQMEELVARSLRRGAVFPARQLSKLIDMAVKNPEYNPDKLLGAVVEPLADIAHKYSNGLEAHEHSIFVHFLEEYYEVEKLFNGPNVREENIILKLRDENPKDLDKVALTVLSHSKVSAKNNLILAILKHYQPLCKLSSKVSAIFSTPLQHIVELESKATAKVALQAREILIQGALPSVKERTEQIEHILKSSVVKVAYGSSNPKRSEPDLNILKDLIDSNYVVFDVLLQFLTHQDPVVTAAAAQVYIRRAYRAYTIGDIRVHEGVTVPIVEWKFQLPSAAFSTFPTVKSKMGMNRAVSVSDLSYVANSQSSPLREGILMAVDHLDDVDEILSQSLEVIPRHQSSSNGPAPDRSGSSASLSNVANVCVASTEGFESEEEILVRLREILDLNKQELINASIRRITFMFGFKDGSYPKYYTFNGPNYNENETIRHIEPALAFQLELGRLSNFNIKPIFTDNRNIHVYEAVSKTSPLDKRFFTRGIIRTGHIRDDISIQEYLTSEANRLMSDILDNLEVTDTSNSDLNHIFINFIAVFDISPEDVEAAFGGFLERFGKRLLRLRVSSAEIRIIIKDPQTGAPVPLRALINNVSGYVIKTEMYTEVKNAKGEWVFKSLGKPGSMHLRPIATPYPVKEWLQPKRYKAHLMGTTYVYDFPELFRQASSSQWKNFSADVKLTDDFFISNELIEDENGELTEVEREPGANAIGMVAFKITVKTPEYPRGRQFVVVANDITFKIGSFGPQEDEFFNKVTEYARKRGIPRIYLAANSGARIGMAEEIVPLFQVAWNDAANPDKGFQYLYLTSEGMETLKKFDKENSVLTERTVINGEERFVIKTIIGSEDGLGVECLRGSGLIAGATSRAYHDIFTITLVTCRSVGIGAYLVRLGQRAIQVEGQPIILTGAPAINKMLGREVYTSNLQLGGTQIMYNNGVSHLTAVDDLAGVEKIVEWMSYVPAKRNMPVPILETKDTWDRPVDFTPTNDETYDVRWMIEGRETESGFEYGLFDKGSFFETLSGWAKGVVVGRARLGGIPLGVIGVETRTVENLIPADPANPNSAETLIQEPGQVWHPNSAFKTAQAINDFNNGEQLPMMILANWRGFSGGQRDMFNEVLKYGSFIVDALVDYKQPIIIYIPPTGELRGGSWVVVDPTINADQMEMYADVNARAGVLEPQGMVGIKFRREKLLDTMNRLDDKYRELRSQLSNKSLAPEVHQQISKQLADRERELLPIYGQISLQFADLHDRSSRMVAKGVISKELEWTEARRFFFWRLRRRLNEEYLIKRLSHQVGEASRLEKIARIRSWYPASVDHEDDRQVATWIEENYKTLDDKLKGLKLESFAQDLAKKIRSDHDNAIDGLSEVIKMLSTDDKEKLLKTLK

| SMILES | IC50 (Human ACC2) [µM] | IC50 (Fungal ACC2) [µM] | other results |
| --- | --- | --- | --- |
| COCCO[C@@H](Cn1c(=O)n(C2CCCN(C)C2=O)c(=O)c2c(C)c(-n3nccn3)sc21)c1cc(F)ccc1OC (stereo partly drawn) [Compound I-14, 1-((R)-2-(5-fluoro-2-methoxyphenyl)-2-(2-methoxy-ethoxy)ethyl)-5-methyl-3-(1-methyl-2-oxopiperidin-3-yl)-6-(2H-1,2,3-triazol-2-yl)thieno[2,3-d]pyrimidine-2,4(1H,3H)-dione] | 0.01 to 0.1 | 0.002 to 0.01 |  |
| COc1ccccc1[C@H](Cn1c(=O)n([C@H]2CCCNC2=O)c(=O)c2c(C)c(-c3ncco3)sc21)OCCO [Compound I-60, 1-((R)-2-(2-hydroxyethoxy)-2-(2-methoxyphenyl)ethyl)-5-methyl-6-(oxazol-2-yl)-3-((S)-2-oxopiperidin-3-yl)thieno[2,3-d]pyrimidine-2,4(1H,3H)-dione] | 0.01 to 0.1 | 0.0007 to 0.002 |  |
| COc1ccc(F)cc1[C@H](Cn1c(=O)n([C@@H]2CCN(C(C)C)C2=O)c(=O)c2c(C)c(-n3nccn3)sc21)OC1CCOCC1 [Compound I-139, 1-((R)-2-(5-fluoro-2-methoxyphenyl)-2-((tetrahydro-2H-pyran-4-yl)oxy)ethyl)-3-((R)-1-isopropyl-2-oxopyrrolidin-3-yl)-5-methyl-6-(2H-1,2,3-triazol-2-yl)thieno[2,3-d]pyrimidine-2,4(1H,3H)-dione] | 0.002 to 0.01 |  | MIC C. albicans ATCC 90028 (C. albicans ATCC 90028; [2]): C (provided an MIC of 2.1-4.0 μg/mL); MIC C. krusei ATCC 6258 (C. krusei ATCC 6258; [2]): B (provided an MIC of 1.1-2.0 μg/mL); MIC C. parapsilosis ATCC 22019 [1, 2]: B (provided an MIC of 1.1-2.0 μg/mL) |
| COCCO[C@@H](Cn1c(=O)n([C@]2(C)CCNC2=O)c(=O)c2c(C)c(-n3nccn3)sc21)c1cc(F)ccc1OC [Compound I-140, 1-((R)-2-(5-fluoro-2-methoxyphenyl)-2-(2-methoxy-ethoxy)ethyl)-5-methyl-3-((R)-3-methyl-2-oxopyrrolidin-3-yl)-6-(2H-1,2,3-triazol-2-yl)thieno[2,3-d]pyrimidine-2,4(1H,3H)-dione] | > 1 | > 1 |  |
| COCCO[C@@H](Cn1c(=O)n([C@@]2(C)CCNC2=O)c(=O)c2c(C)c(-n3nccn3)sc21)c1cc(F)ccc1OC [Compound I-141, 1-((R)-2-(5-fluoro-2-methoxyphenyl)-2-(2-methoxyethoxy)ethyl)-5-methyl-3-((S)-3-methyl-2-oxopyrrolidin-3-yl)-6-(2H-1,2,3-triazol-2-yl)thieno[2,3-d]pyrimidine-2,4(1H,3H)-dione] | > 1 | > 1 |  |
| COCCO[C@@H](Cn1c(=O)n([C@]2(C)CCN(C)C2=O)c(=O)c2c(C)c(-n3nccn3)sc21)c1cc(F)ccc1OC [Compound I-146, 3-((R)-1,3-dimethyl-2-oxopyrrolidin-3-yl)-1-((R)-2-(5-fluoro-2-methoxyphenyl)-2-(2-methoxyethoxy)ethyl)-5-methyl-6-(2H-1,2,3-triazol-2-yl)thieno[2,3-d]pyrimidine-2,4(1H,3H)-dione] | > 1 | > 1 |  |
| COCCO[C@@H](Cn1c(=O)n([C@@]2(C)CCN(C)C2=O)c(=O)c2c(C)c(-n3nccn3)sc21)c1cc(F)ccc1OC [Compound I-148, 3-((S)-1,3-dimethyl-2-oxopyrrolidin-3-yl)-1-((R)-2-(5-fluoro-2-methoxyphenyl)-2-(2-methoxyethoxy)ethyl)-5-methyl-6-(2H-1,2,3-triazol-2-yl)thieno[2,3-d]pyrimidine-24(1H,3H)-dione] | > 1 | > 1 |  |
| CCN1CC[C@H](n2c(=O)c3c(C)c(-n4nccn4)sc3n(C[C@H](OC3CCOCC3)c3cc(F)ccc3OC)c2=O)C1=O [Compound I-150, 3-((S)-1-ethyl-2-oxopyrrolidin-3-yl)-1-((R)-2-(5-fluoro-2-methoxyphenyl)-2-((tetrahydro-2H-pyran-4-yl)oxy)ethyl)-5-methyl-6-(2H-1,2,3-triazol-2-yl)thieno[2,3-d]pyrimidine-2,4(1H,3H)-dione] | 0.002 to 0.01 |  | MIC (C. albicans ATCC 90028; [2]): 0.25 to 1 mg/L (≈ 0.408 to 1.63 µM); MIC (C. krusei ATCC 6258; [2]): 0.075 to 0.24 mg/L (≈ 0.122 to 0.392 µM); MIC [1, 2]: 0.25 to 1 mg/L (≈ 0.408 to 1.63 µM) |
| CCN1CC[C@@H](n2c(=O)c3c(C)c(-n4nccn4)sc3n(C[C@H](OC3CCOCC3)c3cc(F)ccc3OC)c2=O)C1=O [Compound I-151] | 0.002 to 0.01 |  | MIC (C. albicans ATCC 90028; [2]): 0.25 to 1 mg/L (≈ 0.408 to 1.63 µM); MIC (C. krusei ATCC 6258; [2]): 0.075 to 0.24 mg/L (≈ 0.122 to 0.392 µM); MIC [1, 2]: 0.25 to 1 mg/L (≈ 0.408 to 1.63 µM) |
| COCCO[C@@H](Cn1c(=O)n([C@@H]2CCN(C)C2=O)c(=O)c2c(C)c(-n3nccn3)sc21)c1cc(F)ccc1OCC#N [Compound I-159, 2-(4-fluoro-2-((R)-1-(2-methoxyethoxy)-2-(5-methyl-3-((R)-1-methyl-2-oxopyrrolidin-3-yl)-2,4-dioxo-6-(2H2H-1,2,3-triazol-2-yl)-3,4-dihydrothieno[2,3-d]pyrimidin-1 (2H)-yl)ethyl)phenoxy)acetonitrile] | > 1 |  | MIC (C. albicans ATCC 90028): 2.1 to 4 mg/L (≈ 3.51 to 6.69 µM); MIC (C. krusei ATCC 6258): 2.1 to 4 mg/L (≈ 3.51 to 6.69 µM); MIC [1]: 2.1 to 4 mg/L (≈ 3.51 to 6.69 µM) |
| COCCO[C@@H](Cn1c(=O)n([C@H]2CCN(C)C2=O)c(=O)c2c(C)c(-n3nccn3)sc21)c1cc(F)ccc1OCC#N [Compound I-160, 2-(4-fluoro-2-((R)-1-(2-methoxyethoxy)-2-(5-methyl-3-((S)-1-methyl-2-oxopyrrolidin-3-yl)-2,4-dioxo-6-(2H-1,2,3-triazol-2-yl)-3,4-dihydrothieno[2,3-d]pyrimidin-1(2H)-yl)ethyl)phenoxy)acetonitrile] | 0.01 to 0.1 |  | MIC (C. albicans ATCC 90028): 2.1 to 4 mg/L (≈ 3.51 to 6.69 µM); MIC (C. krusei ATCC 6258): 2.1 to 4 mg/L (≈ 3.51 to 6.69 µM); MIC [1]: 2.1 to 4 mg/L (≈ 3.51 to 6.69 µM) |
| COc1ccc(F)cc1[C@H](Cn1c(=O)n([C@@H]2CCN(C)C2=O)c(=O)c2c(C)c(-n3nccn3)sc21)O[C@H]1C[C@H](O)C1 [Compound I-185, 1-((R)-2-(5-fluoro-2-methoxyphenyl)-2-((1r,3R)-3-hydroxycyclobutoxy)ethyl)-5-methyl-3-((R)-1-methyl-2-oxopyrrolidin-3-yl)-6-(2H-1,2,3-triazol-2-yl)thieno[2,3-d]pyrimidine-2,4(1H,3H)-dione] | 0.002 to 0.01 | 0.0007 to 0.002 |  |
| COc1ccc(F)cc1[C@H](Cn1c(=O)n([C@@H]2CCNC2=O)c(=O)c2c(C)c(-c3ncco3)sc21)O[C@H]1CC[C@@H](O)CC1 [Compound I-191, 1-((R)-2-(5-fluoro-2-methoxyphenyl)-2-(((1s, 4S)-4-hydroxycyclohexyl)oxy)ethyl)-5-methyl-6-(oxazol-2-yl)-3-((R)-2-oxopyrrolidin-3-yl)thieno[2,3-d]pyrimidine-2,4(1H,3H)-dione] | 0.0007 to 0.002 | 0.0007 to 0.002 |  |
| COc1ccc(F)cc1[C@H](Cn1c(=O)n([C@H]2CCNC2=O)c(=O)c2c(C)c(-c3ncco3)sc21)O[C@H]1CC[C@@H](O)CC1 [Compound I-192, 1-((R)-2-(5-fluoro-2-methoxyphenyl)-2-(((1 s, 4S)4-hydroxycyclohexyl)oxy)ethyl)-5-methyl-6-(oxazol-2-yl)-3-((S)-2-oxopyrrolidin-3-yl)thieno[2,3-d]pyrimidine-2,4(1H,3H)-dione] | 0.002 to 0.01 | 0.0007 to 0.002 |  |
| COc1ccc(F)cc1[C@H](Cn1c(=O)n([C@@H]2CCN(C)C2=O)c(=O)c2c(C)c(-c3ncco3)sc21)O[C@H]1CC[C@@H](O)CC1 [Compound I-193, 1-((R)-2-(5-fluoro-2-methoxyphenyl)-2-(((1 s, 4S)-4-hydroxycyclohexyl)oxy)ethyl)-5-methyl-3-((R)-1-methyl-2-oxopyrrolidin-3-yl)-6-(oxazol-2-yl)thieno[2,3-d]pyrimidine-2,4(1H,3H)-dione] | 0.002 to 0.01 | 0.0007 to 0.002 |  |
